Experimental data: ChEMBL document CHEMBL1136157, “Synthesis of 3a,4-dihydro-3H-[1]benzopyrano[4,3-c]isoxazoles, displaying combined 5-HT uptake inhibiting and alpha(2)-adrenoceptor antagonistic activities: a novel series of potential antidepressants” (Bioorg Med Chem Lett, 2003)

What follows are compounds tested against Sodium-dependent serotonin transporter (Homo sapiens) (UniProt P31645) (assay: In vitro binding affinity towards human serotonin transporter).
Chain of Sodium-dependent serotonin transporter (Homo sapiens) (P31645 whole entry, looked up): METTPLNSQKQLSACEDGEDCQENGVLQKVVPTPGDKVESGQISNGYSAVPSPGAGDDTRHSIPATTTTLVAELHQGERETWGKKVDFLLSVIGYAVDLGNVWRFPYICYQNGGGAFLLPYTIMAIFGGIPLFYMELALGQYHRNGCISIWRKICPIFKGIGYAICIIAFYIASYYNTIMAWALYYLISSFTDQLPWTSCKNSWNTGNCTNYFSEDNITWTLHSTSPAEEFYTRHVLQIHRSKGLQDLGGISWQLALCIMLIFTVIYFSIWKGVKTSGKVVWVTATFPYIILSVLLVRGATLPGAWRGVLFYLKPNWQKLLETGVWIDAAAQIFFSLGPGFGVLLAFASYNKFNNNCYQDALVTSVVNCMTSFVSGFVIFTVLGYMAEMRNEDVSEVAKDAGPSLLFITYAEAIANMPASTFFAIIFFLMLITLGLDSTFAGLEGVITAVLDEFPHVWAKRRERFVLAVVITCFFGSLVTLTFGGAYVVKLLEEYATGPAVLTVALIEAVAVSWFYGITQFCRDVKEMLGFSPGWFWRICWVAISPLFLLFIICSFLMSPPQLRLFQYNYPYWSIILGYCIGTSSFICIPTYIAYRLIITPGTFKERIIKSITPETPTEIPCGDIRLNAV

Row | Structure (SMILES) | Ki [nM]
1 | COc1cc2c(cc1OC)C1=NOC(CN3CCN(CCC(=O)c4ccccc4)CC3)C1CO2 (centres undefined) | 123
2 | COc1cc2c(cc1OC)C1=NO[C@@H](CN3CCN(C/C=C/c4ccccc4)CC3)[C@@H]1CO2 (stereo in doubt; (+)5) | 1.2
3 | COc1cc2c(cc1OC)C1=NOC(CN3CCN(Cc4cccc5ccccc45)CC3)C1CO2 (centres undefined) | 3.9
4 | COc1cc2c(cc1OC)C1=NO[C@@H](CN3CCN(C/C=C(\C)c4ccccc4)CC3)[C@@H]1CO2 (stereo in doubt; (+)15g) | 4.5
5 | COc1cc2c(cc1OC)C1=NOC(CN3CCN(Cc4cc5ccccc5s4)CC3)C1CO2 (centres undefined) | 5
6 | COc1ccc2c(c1)C1=NOC(CN3CCN(C/C=C/c4ccccc4)CC3)C1CO2 (centres undefined) | 14
7 | COc1cc2c(cc1OC)C1=NOC(CN3CCN(CCc4ccccc4)CC3)C1CO2 (centres undefined) | 199
8 | COc1cc2c(cc1OC)C1=NOC(CN3CCN(C/C=C(\C)c4ccccc4)CC3)C1CO2 (centres undefined) | 10
9 | COc1cc2c(cc1OC)C1=NOC(CN3CCN(Cc4csc5ccccc45)CC3)C1CO2 (centres undefined) | 7.2
10 | COc1cc2c(cc1OC)C1=NO[C@@H](CN3CCN(C/C=C/c4ccccc4)CC3)[C@@H]1CO2 (stereo in doubt; (-)5) | 3.4
11 | COc1cc2c(cc1OC)C1=NOC(CN3CCN(CC4=Cc5ccccc5C4)CC3)C1CO2 (centres undefined) | 4.1
12 | COc1cc2c(cc1OC)C1=NOC(CN3CCN(C/C=C/c4ccccc4)CC3)C1CO2 (centres undefined) | 8.3
13 | COc1ccc2c(c1)OCC1C2=NOC1CN1CCN(C/C=C/c2ccccc2)CC1 (centres undefined) | 19
14 | COc1cc2c(cc1OC)C1=NOC(CN3CCN(Cc4cnc5ccccc5c4)CC3)C1CO2 (centres undefined) | 14
15 | COc1cc2c(cc1OC)C1=NO[C@@H](CN3CCN(C/C=C(\C)c4ccccc4)CC3)[C@@H]1CO2 (stereo in doubt; (-)15g) | 10
16 | COc1cc2c(cc1OC)C1=NOC(CN3CCN(Cc4ccc5ncccc5c4)CC3)C1CO2 (centres undefined) | 8.1
17 | COc1cc2c(cc1OC)C1=NO[C@@H](CN3CCN(C/C=C\c4ccccc4)CC3)[C@@H]1CO2 | 35
18 | COc1cc2c(cc1OC)C1=NOC(CN3CCN(CCCc4ccccc4)CC3)C1CO2 (centres undefined) | 10
19 | COc1cc2c(cc1OC)C1=NOC(CN3CCN(Cc4ccccc4)CC3)C1CO2 (centres undefined) | 158
